Results published in PubChem BioAssay (NCI).
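Five compound concentrations were applied to cells in 96-well plates for 48 hours; endpoints were derived by simple linear interpolation of the resulting dose-response curve. GI50 = concentration required for 50% inhibition of growth. TGI denotes the concentration required for complete inhibition of growth.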

Tests used:
Assay in all cases: DTP human tumour cell line panel, 48 h
T-47D breast = tested on: T-47D breast
SNB-19 CNS = tested on: SNB-19 CNS
A549 NSCLC = tested on: A549 NSCLC
SN12C renal = tested on: SN12C renal
BT-549 breast = tested on: BT-549 breast
HCT-116 colon = tested on: HCT-116 colon
OVCAR-5 ovarian = tested on: OVCAR-5 ovarian
IGROV1 ovarian = tested on: IGROV1 ovarian
SR leukemia = tested on: SR leukemia
COLO 205 colon = tested on: COLO 205 colon
NCI-H522 lung = tested on: NCI-H522 lung
SK-MEL-2 melanoma = tested on: SK-MEL-2 melanoma
SK-OV-3 ovarian = tested on: SK-OV-3 ovarian
PC-3 prostate = tested on: PC-3 prostate
OVCAR-8 ovarian = tested on: OVCAR-8 ovarian
RXF 393 renal = tested on: RXF 393 renal
UACC-62 melanoma = tested on: UACC-62 melanoma
RPMI-8226 leukemia = tested on: RPMI-8226 leukemia
NCI-H23 lung = tested on: NCI-H23 lung
OVCAR-3 ovarian = tested on: OVCAR-3 ovarian
SK-MEL-5 melanoma = tested on: SK-MEL-5 melanoma
KM12 colon = tested on: KM12 colon
MCF7 breast = tested on: MCF7 breast
NCI-H226 lung = tested on: NCI-H226 lung
EKVX NSCLC = tested on: EKVX NSCLC
A498 renal = tested on: A498 renal
K-562 leukemia = tested on: K-562 leukemia
ACHN renal = tested on: ACHN renal
HL-60(TB) leukemia = tested on: HL-60(TB) leukemia

CCNC(=O)CCCCC(=O)c1c(C)[nH]c(/C=C2\N=C(c3ccc[nH]3)C=C2OC)c1C
GI50 (T-47D breast): 2.68 µM | TGI (T-47D breast): 6.43 µM | GI50 (SNB-19 CNS): 6.74 µM | TGI (SNB-19 CNS): 19.2 µM | GI50 (A549 NSCLC): 4.72 µM | TGI (A549 NSCLC): 21.4 µM | GI50 (SN12C renal): 2.47 µM | TGI (SN12C renal): 6.16 µM | GI50 (BT-549 breast): 2.85 µM | TGI (BT-549 breast): 10.3 µM | GI50 (HCT-116 colon): 2.33 µM | TGI (HCT-116 colon): 23.6 µM | GI50 (OVCAR-5 ovarian): 6.01 µM | TGI (OVCAR-5 ovarian): 20.6 µM | GI50 (IGROV1 ovarian): 3.82 µM | TGI (IGROV1 ovarian): > 100 µM | GI50 (SR leukemia): 1.65 µM | TGI (SR leukemia): 32.8 µM | GI50 (COLO 205 colon): 1.97 µM | TGI (COLO 205 colon): 3.65 µM | GI50 (NCI-H522 lung): 2.2 µM | TGI (NCI-H522 lung): 5.48 µM | GI50 (SK-MEL-2 melanoma): 3.14 µM | TGI (SK-MEL-2 melanoma): 7.44 µM | GI50 (SK-OV-3 ovarian): 2.59 µM | TGI (SK-OV-3 ovarian): 5.76 µM | GI50 (PC-3 prostate): 1.63 µM | TGI (PC-3 prostate): 5.8 µM | GI50 (OVCAR-8 ovarian): 2.96 µM | TGI (OVCAR-8 ovarian): 7.73 µM | GI50 (RXF 393 renal): 2.97 µM | TGI (RXF 393 renal): 8.41 µM | GI50 (UACC-62 melanoma): 6.11 µM | TGI (UACC-62 melanoma): 19.3 µM | GI50 (RPMI-8226 leukemia): 2.79 µM | TGI (RPMI-8226 leukemia): > 100 µM | GI50 (NCI-H23 lung): 4.5 µM | TGI (NCI-H23 lung): 24.5 µM | GI50 (OVCAR-3 ovarian): 1.85 µM | TGI (OVCAR-3 ovarian): 3.67 µM | GI50 (SK-MEL-5 melanoma): 11.7 µM | TGI (SK-MEL-5 melanoma): 24.9 µM | GI50 (KM12 colon): 2.17 µM | TGI (KM12 colon): 4.79 µM | GI50 (MCF7 breast): 1.84 µM | TGI (MCF7 breast): 4.51 µM | GI50 (NCI-H226 lung): 20.3 µM | TGI (NCI-H226 lung): 41.1 µM | GI50 (EKVX NSCLC): 11.2 µM | TGI (EKVX NSCLC): 31.7 µM | GI50 (A498 renal): 8.19 µM | TGI (A498 renal): 21 µM | GI50 (K-562 leukemia): 3.23 µM | TGI (K-562 leukemia): > 100 µM | GI50 (ACHN renal): 1.8 µM | TGI (ACHN renal): 3.34 µM | GI50 (HL-60(TB) leukemia): 2.06 µM
